Patent publication US11739074B2, “Ras inhibitors” (Revolution Medicines, Inc., priority 2019, dated 2023)
Read-outs that look alike come from different tables or passages of the source.

Columns and labels:
Format in all cases: cell-based
AsPC-1 (K-Ras G12D) [1] = experiment: CellTiter-Glo cell viability assay, AsPC-1; conditions: Homo sapiens, ASPC1, 120 h
Procedure, shortened: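 Percent-of-DMSO luminescence values (CellTiter-Glo, day 5, plates equilibrated ~30 minutes at ambient temperature) were curve-fitted using a 4-parameter logistic equation; compounds had been added straight into wells containing the cells.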

NCI-H358 (K-Ras G12C) = experiment: CellTiter-Glo cell viability assay, H358; conditions: Homo sapiens, NCI-H358, 120 h
Method: Determination of Cell Viability in RAS Mutant Cancer Cell Lines
Protocol: CellTiter-Glo® Cell Viability Assay
Note—The following protocol describes a procedure for monitoring cell viability of K-Ras mutant cancer cell lines in response to a compound of the invention. Other RAS isoforms may be employed, though the number of cells to be seeded will vary based on cell line used.
Test compounds (132.5 nL) were directly dispensed into the assay plates containing cells. […] On day 5, assay plates and their contents were equilibrated to room temperature for approximately 30 minutes. […] Luminescence was measured using the PerkinElmer Enspire. Data were normalized by the following: (Sample signal/Avg. DMSO)*100. The data were fit using a four-parameter logistic fit.

AsPC-1 (K-Ras G12D) [2] = experiment: Potency assay: pERK in AsPC-1 cells; conditions: Homo sapiens
[3] = read-out: AsPC-1 Cell Viability IC50, AsPC-1, K-Ras G12D, 5-day treatment
[4] = read-out: H358 Cell Viability IC50, NCI-H358, K-Ras G12C, 5-day treatment
[5] = ASPC1, read-out: pERK EC50 (AsPC-1 KRAS G12D)
[6] = AsPC-1, K-Ras G12D, 5-day treatment, read-out: AsPC-1 Cell Viability IC50
[7] = NCI-H358, K-Ras G12C, 5-day treatment, read-out: H358 Cell Viability IC50
[8] = ASPC1, AsPC-1 cells, K-Ras G12D, read-out: pERK EC50 (AsPC-1 KRAS G12D)

SMILES | IC50 (AsPC-1 (K-Ras G12D) [1]; [3]) [nM] | IC50 (NCI-H358 (K-Ras G12C); [4]) [nM] | EC50 (AsPC-1 (K-Ras G12D) [2]; [5]) [nM] | IC50 (AsPC-1 (K-Ras G12D) [1]; [6]) [nM] | IC50 (NCI-H358 (K-Ras G12C); [7]) [nM] | EC50 (AsPC-1 (K-Ras G12D) [2]; [8]) [nM]
CCn1c(-c2cccnc2[C@H](C)OC)c2c3cc(ccc31)-c1cc(O)cc(c1)C[C@H](NC(=O)[C@H](C(C)C)N(C)C(=O)CN(C)C(=O)C1CN1CCOC)C(=O)N1CCC[C@H](N1)C(=O)OCC(C)(C)C2 (some centres unmarked) [Compound 90] | 100 to 1000 | < 10 | < 5000 | – | – | –
CCn1c(-c2cnccc2COC)c2c3cc(ccc31)-c1cc(O)cc(c1)C[C@H](NC(=O)[C@H](C(C)C)N(C)C(=O)CN(C)C(=O)[C@@H]1N[C@H]1c1ccc(OC)cc1)C(=O)N1CCC[C@H](N1)C(=O)OCC(C)(C)C2 [Compound 96] | 1000 to 10000 | 1000 to 10000 | < 5000 | – | – | –
CCn1c(-c2cccnc2[C@H](C)OC)c2c3cc(ccc31)-c1cc(O)cc(c1)C[C@H](NC(=O)[C@H](C(C)C)N(C)C(=O)[C@@H]1CN1)C(=O)N1CCC[C@H](N1)C(=O)OCC(C)(C)C2 [Compound 100] | – | – | – | 100 to 1000 | 10 to 100 | < 5000
CCn1c(-c2cccnc2[C@H](C)OC)c2c3cc(ccc31)-c1cc(O)cc(c1)C[C@H](NC(=O)[C@H](C(C)C)N(C)C(=O)[C@H](C)N(C)C(=O)[C@H]1CN1)C(=O)N1CCC[C@H](N1)C(=O)OCC(C)(C)C2 [Compound 102] | 100 to 1000 | 10 to 100 | < 5000 | – | – | –
CCn1c(-c2cnccc2COC)c2c3cc(ccc31)-c1cc(O)cc(c1)C[C@H](NC(=O)[C@H](C(C)C)N(C)C(=O)CN(C)C(=O)[C@@H]1N[C@@H]1C1CC1)C(=O)N1CCC[C@H](N1)C(=O)OCC(C)(C)C2 [Compound 103] | 100 to 1000 | 100 to 1000 | < 5000 | – | – | –
CCn1c(-c2cccnc2[C@H](C)OC)c2c3cc(ccc31)-c1cccc(c1)C[C@H](NC(=O)[C@H](C(C)C)N(C)C(=O)CN(C)C(=O)[C@H]1CN1)C(=O)N1CCC[C@H](N1)C(=O)OCC(C)(C)C2 [Compound 107] | 1000 to 10000 | 100 to 1000 | < 5000 | – | – | –
CCn1c(-c2cccnc2[C@H](C)OC)c2c3cc(ccc31)-c1csc(n1)C[C@H](NC(=O)[C@H](C1CCCC1)N(C)C(=O)CN(C)C(=O)[C@H]1CN1)C(=O)N1CCC[C@H](N1)C(=O)OCC(C)(C)C2 [Compound 132] | – | – | – | 1000 to 10000 | 10 to 100 | < 5000
CCn1c(-c2cccnc2[C@H](C)OC)c2c3cc(ccc31)-c1cc(O)cc(c1)C[C@H](NC(=O)[C@H](C(C)C)N(C)C(=O)CN(C)C(=O)[C@H]1N[C@@H]1C1CC1)C(=O)N1CCC[C@H](N1)C(=O)OCC(C)(C)C2 [Compound 136] | – | < 10 | < 5000 | – | – | –
CCn1c(-c2cccnc2[C@H](C)OC)c2c3cc(ccc31)-c1cc(O)cc(c1)C[C@H](NC(=O)[C@H](C(C)C)N(C)C(=O)CN(C)C(=O)[C@@H]1CN1CCCOC)C(=O)N1CCC[C@H](N1)C(=O)OCC(C)(C)C2 (some centres unmarked) [Compound 137] | 100 to 1000 | < 10 | < 5000 | – | – | –
CCn1c(-c2cccnc2[C@H](C)OC)c2c3cc(ccc31)-c1cc(O)cc(c1)C[C@H](NC(=O)[C@H](C(C)C)N(C)C(=O)CNC(=O)[C@@H]1N[C@@H]1C1CC1)C(=O)N1CCC[C@H](N1)C(=O)OCC(C)(C)C2 [Compound 141] | 100 to 1000 | 100 to 1000 | < 5000 | – | – | –
CCn1c(-c2cccnc2[C@H](C)OC)c2c3cc(ccc31)-c1cc(O)cc(c1)C[C@H](NC(=O)[C@H](C(C)C)N(C)C(=O)CN(C)C(=O)[C@H]1CN1CCOC)C(=O)N1CCC[C@H](N1)C(=O)OCC(C)(C)C2 (some centres unmarked) [Compound 159] | 100 to 1000 | < 10 | – | – | – | –
CCn1c(-c2cccnc2[C@H](C)OC)c2c3cc(ccc31)-c1cc(O)cc(c1)C[C@H](NC(=O)[C@H](C(C)C)N(C)C(=O)[C@@]1(C)CCCN1C(=O)[C@@H]1CN1)C(=O)N1CCC[C@H](N1)C(=O)OCC(C)(C)C2 [Compound 241] | – | – | – | 100 to 1000 | < 10 | –
CCn1c(-c2cnccc2COC)c2c3cc(ccc31)-c1cc(O)cc(c1)C[C@H](NC(=O)[C@H](C(C)C)N(C)C(=O)[C@H]1CCN(C(=O)[C@@H]3CO3)C1)C(=O)N1CCC[C@H](N1)C(=O)OCC(C)(C)C2 [Example 31, (3S)—N-((2S)-1-(((6^3S,4S)-1^1-ethyl-2^5-hydroxy-1^2-(4-(methoxymethyl)pyridin-3-yl)-10,10-dimethyl-5,7-dioxo-6^1,6^2,6^3,6^4,6^5,6^6-hexahydro-1^1H-8-oxa-1(5,3)-indola-6(1,3)-pyridazina-2(1,3)-benzenacycloundecaphane-4-yl)amino)-3-methyl-1-oxobutan-2-yl)-N-methyl-1-((S)-oxirane-2-carbonyl)pyrrolidine-3-carboxamide] | – | – | – | > 10000 | 1000 to 10000 | –
